Measurements from patent publication US8420836B2, “NFAT signal inhibitor and hair-growing agent” (Kao Corporation, priority 2008, dated 2013).
Entries after “also recorded” stand apart in the source; their conditions may differ.

Legend:
NFAT signal = NFAT signal inhibitory effect: pNFAT-Luc luciferase reporter assay with ionomycin stimulation; type: cell-based, human; settings: HEK293 cells transfected with pNFAT-Luc; 1 μM ionomycin; assay after 8 hours; FIG. 4
Experimental: (1) Materials and Methods for Evaluation System
In this evaluation system, human kidney (HEK293) cells were purchased from ATCC (American Type Culture Collection) and used. HEK293 cells were cultured in DMEM (High glucose, 10% heat-inactivated FBS) under the conditions of 37° C. and 5% CO2.
In this evaluation system, HEK293 cells transfected with a plasmid having firefly luciferase introduced into the downstream of the NFAT-binding sequence, pNFAT-Luc (Stratagene), were used. More specifically, pNFAT-Luc (Stratagene), in which firefly luciferase gene was introduced in the downstream of 4 copies of the NFAT-binding sequence, was transfected into HEK293 cells for an evaluation of the NFAT transcription activity. Furthermore, for the purpose of eliminating fluctuation due to the transfection efficiency, pRL-CMV (Promega) having Renilla luciferase introduced in the downstream of CMV promoter, was simultaneously transfected so as to correct for the signal derived from firefly luciferase.
Transfection was carried out using LipofectAMINE 2000 reagent (Invitrogen) according to the manual. The medium was exchanged eight hours after the transfection, and the system was incubated overnight. Thereafter, the component A, component B and component C obtained in Example 1, and the deacylation product of the component A prepared in Example 3 were added thereto, and further after one hour, 1 μM ionoinycin was added thereto. After 8 hours, a luciferase reporter assay was carried out.
Luciferase Reporter Assay
The luciferase reporter assay was carried out using Dual-Glo Luciferase Assay System (Promega) according to the manual. That is, the medium was removed, and then Dual-Glo luciferase reagent which had been diluted two times with PBS, was added thereto. The system was stirred, and after 20 minutes, the firefly luciferase activity was measured. Thereafter, an equal amount of Dual-Glo Stop&Glo reagent was added to the system, the mixture was stirred, and then the Renilla luciferase activity was measured. The luciferase activity measurement was carried out using MiniLumat LB 9506 (EG&G Berthold), and the amount of luminescence by luciferase was quantitatively detected. For both luciferases, the duration for luciferase activity measurement was set to 2 seconds.
Calculation of NFAT Signal Inhibitory Rate.
All of the NFAT transcription activity values (firefly luciferase activity) were corrected by dividing the values of the Renilla luciferase activity introduced for the transfection efficiency correction. Thereafter, the NFAT signal inhibitory rate was calculated by the following expression.
NFAT signal inhibitory rate (%)=100−(Test sample and ionomycin-added group−non-stimulation group)/(Ionomycin only-added group−non-stimulation group)×100

swine hair follicles = assay: Evaluation of hair shaft elongation by swine hair follicle organ culture; type: cell-based; settings: isolated pig hair follicles cultured 8 days; solvent control (ethanol) taken as 100%; FIG. 6
Experimental: Evaluation of Hair Shaft Elongation by Swine Hair Follicle Organ Culture
The skin of buttocks of a pig for meat was separated into an appropriate size, and excess fatty tissue was removed. The pigskin was disinfected by immersing in a hibitane solution (5% hibitane solution (Dainippon Sumitomo Pharma Co., Ltd.) diluted to 5 to 20 times with water) for 5 minutes to 10 minutes under sterile conditions, and after that was washed several times with D-PBS. Subsequently, hair follicles were isolated from the washed pigskin under a stereoscopic microscope, and the hair follicles were collected in William's Medium E (Invitrogen) medium. […]
The component A and component B obtained in Example 1 were added to the above-mentioned medium, and the system was cultured for 8 days, together with an ethanol-added group, which was a solvent control. Stereomicroscopic images of the culture were captured on the day of culture initiation (zeroth day) and on the eighth day with a CCD camera (Pixera Model No. PVC 100C), and from those images, the length from the base of the hair bulb to the tip of the hair shaft was measured. Thereafter, the hair shaft elongation ratios of the component A and component B obtained in Example 1 were calculated, with the amount of hair shaft elongation of the solvent control group before and after culture being taken as 100%.

## C/C=C(/C)C(=O)OC1c2c(ccc3ccc(=O)oc23)O[C@@H]1C(C)(C)OC(=O)/C(C)=C\C (stereo partly drawn) [component A, archangelicin]
NFAT signal
  NFAT signal inhibitory rate: inhibited the NFAT signal; also recorded: strong NFAT signal inhibitory activity
Swine hair follicles
  hair shaft elongation ratio (hair-growing effect): significant hair shaft elongation

## C/C=C(/C)C(=O)OC1c2c(ccc3ccc(=O)oc23)OC1C(C)(C)OC(=O)CC(C)C (stereo not drawn) [component B, 3′-angeloyloxy-4′-isovaleryloxy-2′,3′-dihydrooroselol]
NFAT signal
  NFAT signal inhibitory rate: inhibited the NFAT signal; also recorded: strong NFAT signal inhibitory activity
Swine hair follicles
  hair shaft elongation ratio (hair-growing effect): significant hair shaft elongation

## C/C=C(/C)C(=O)OC1c2c(ccc3ccc(=O)oc23)O[C@@H]1C(C)(C)OC(=O)C=C(C)C (stereo partly drawn) [component C, 3′-angeloyloxy-4′-senecioyloxy-2′,3′-dihydrooroselol]
NFAT signal
  NFAT signal inhibitory rate: inhibited the NFAT signal; also recorded: strong NFAT signal inhibitory activity

## C/C=C(/C)C(=O)OC(C)(C)[C@H]1Oc2ccc3ccc(=O)oc3c2[C@H]1O [deacylation product of the component A, 3′-hydroxy-4′-angeloyloxy-2′,3′-dihydrooroselol]
NFAT signal
  NFAT signal inhibitory rate: inhibited the NFAT signal
